What was measured:
[1] = test system: Human airway epithelial (HAE) cells; experiment: Luciferase (pCILuc) transfection of HAE cells, Example 13; assay type: cell-based
Procedure: Transfection vector complexes were prepared as described in the Material and Methods section, see also Example 15. The complexes were prepared using 4 μg of the peptide, 0.75 μg of lipofectin and 1 μg of the reporter gene. All components and the vector complex were made up in OptiMEM (Life Technologies, Inc.). EGTA (Sigma) at a concentration of 100 mM in water was added to the transfection vector complex preparation at one hundredth of the volume of the vector complex, giving a final EGTA concentration of 1 mM.
The EGTA/vector complex mixture was added to the cultures, which were then harvested two days later. As controls, cultures were treated with OptiMEM medium alone and with the transfection vector complex without EGTA.
We obtained essentially the same results using the luciferase reporter gene instead of GFP. Transfections ere carried out using the transfection vector prepared as described above with the construct pCILuc, with and without EGTA, as described above. Luciferase assays were performed on cell-free extracts of harvested cells using a kit obtained from Promega using an Anthos Lucy 1 Luminometer. As with the GFP experiments, luciferase levels were enhanced approximately four-fold in confluent cells treated with EGTA compared with transfections performed without EGTA. […]

1HAEo-cells = experiment: pEGFP transfection efficiency by flow cytometry, 1HAEo- cells, Example 15; assay type: cell-based, human; conditions: EGTA 2 mM versus no EGTA
Procedure: Human airway epithelial cell lines, a normal cell line 1HAEo- and a CF cell line 2CFSMEo-, were used in this study. […] The apical medium was then removed and growth medium was added basolateraly to leave the cells growing at an air-liquid interface. Confluent cells were grown for further 10-14 days and were monitored with an ohmmeter (EVOM; World Precision Instruments, Stevenage, UK) until the transepithelial resistance was greater than 300 Ω·cm before transfection. […] Sub-confluent, proliferating cells were prepared by growing the cells for less then 3 days in growth medium prior to transfection.
Briefly, stock solutions of the three components of the LID vector complex were prepared first. Plasmid DNA (component D) was diluted in cell culture medium OptiMEM (Life Technologies, Paisley, UK) at a concentration of 0.01 μg/μl. […] The peptide component I was dissolved in Opti-MEM at 0.1 mg/ml. The lipid component L was Lipofectin, a commercially available equimolar mixture of the cationic lipid N-[1-(2,3-dioleyloxy)propyl]-n,n,n-trimethylammonium chloride (DOTMA) and the neutral lipid dioleoyl phosphotidylethanolamine (DOPE), (Life Technologies, Paisley, UK) and was used from purchase at 1 mg/ml. […]

confluent 1HAEo-cells = experiment: Immunofluorescence for tight junction protein occludin; assay type: cell-based, human; conditions: 2 mM EGTA in Opti-MEM, 30 minutes
Procedure: To observe the double fluorescence labelling, the β-galactosidase-transfected and BrdU-labelled (as detailed above in Assay of cell proliferation) cells were fixed with 70% ethanol in 50 mM glycine buffer, pH 2.0, for 30 minutes at −20° C. The cells were then incubated with a mixture of two primary antibodies, the rabbit anti-p-galactosidase at 1:200 (Chemicon International Inc, Harrow, UK). and the mouse anti-BrdU at 1:10 (BrdU Labelling and Detection Kit; Roche, Basel, Switzerland), followed by incubation with a mixture of FITC-conjugated goat anti-rabbit IgG and texas red labelled horse anti-mouse IgG (Vector Laboratories, Peterborough, UK). Transwell inserts were then excised from the plastic holder and mounted on glass slides with aqueous mountant Vectashield (Vector Laboratories, Peterborough, UK). To observe the effects of EGTA on tight junction, the EGTA-treated cells were immunostained with a rabbit polyclonal antibody against tight junction protein occludin (Zymed, San Francisco, USA) diluted 1:10 with PBS. […] Images were observed and captured with an inverted fluorescence microscope (Olympus IX70, Olympus Optical Company, London, UK) for transwell and a confocal microscope (Leica TCS SP, Exton, Pa., USA) for excised inserts.

[2] = test system: normal and CF epithelial cell lines; experiment: Transfection of sub-confluent and confluent airway epithelial cell lines (summary of description); assay type: cell-based, human
Source text: However, all the cell lines tested were transfected under conventional conditions for transfection, that is to say, the cells were sub-confluent. It has been reported that mitosis is required for efficient transformation using cationic liposomes and also when using peptide-based transformation systems (Wilke, 1996; Tseng 1999; Brunner 2000). Confluent cells and/or cells treated with inhibitors of DNA polymerase such as aphidicolin are non-mitotic and transfect with polycationic vectors with low efficiency. The major cell limiting step is considered to be delivery of the transfected nucleic acid into the nucleus. Transportation of the nucleic acid through the cytoplasm to the nucleus is slow and the pores in the nuclear envelope are too small to permit rapid entry of the transfected nucleic acid. It is generally accepted that sub-confluent cultures, in which the cells are dividing, should be used for transfection. We attempted transfection with the transfection complexes of WO98/54347 but using cell line cultures that were confluent i.e. effectively non-mitotic.
The present invention is based on the surprising observation that the use of EGTA with a transfection vector comprising DNA, an integrin-binding component, a polycationic nucleic acid-binding component, and a lipid component, enhances transfection efficiency of confluent cells, which are slowly dividing or non-dividing i.e. substantially non-mitotic cells, in vitro and in vivo.
In accordance with the present invention integrin-targeted transfection vector complexes comprising peptide 6 above, which is an α5β1-targeted peptide, linked to oligolysine comprising 16 lysines i.e. K16, (component I); lipofectin (component L); and a reporter gene (component D) were used with EGTA for transfection. Sub-confluent normal and CF epithelial cell lines were transfected with the green fluorescent report gene and transfection efficiencies of 40 to 50% were achieved. Cells were then cultured in confluent monolayers to model more closely airway structure. […]

mouse lung = experiment: Transfection of mouse lungs in vivo (luciferase), intra-tracheal instillation
Procedure: Lipid (lipofectin) (1 mg/ml) and peptide 6 ([sequence]) (1 mg/ml) were mixed in one tube and pCILuc Plasmid DNA (1 mg/ml) and EGTA in phosphate buffer saline (PBS) were mixed together in another tube then the contents of the two tubes were mixed so that the final ratios were 0.75 μg lipid to 1 μg DNA and a final concentration of 100 mM EGTA (or no EGTA for the control). The protocol was repeated to give vector complexes having a final EGTA concentration of 400 mM.
Each mouse received 8 μg of plasmid DNA in a volume of 50 μl.
Cell lysis buffer (Promega, Southampton, England) was added to each lung (4 μl/mg). The tissue was then homogenised two times, on ice, for 30 seconds each time (Polytron PT10-35, Philip Harris, Nottingham, England). Lung homogenates were is centrifuged at 10,000×g at 4 C for 10 minutes, then 20 μl of the supernatant were added to 100 μl of luciferase assay buffer (Promega) and luminescence measured in a luminometer (TD-20/20; Steptech Instruments, Stevenage, England). All results were repeated in triplicate and the mean calculated.
The total protein concentration in the lysate was measured using a protein assay kit (Bio-Rad, Hemel Hempstead, Herts, England) and using bovine serum albumin as a standard. Luciferase activity was expressed in relative light units (RLU) for each sample of lung lysate minus the background and normalised per mg of protein.

For `O=C(O)CN(CCOCCOCCN(CC(=O)O)CC(=O)O)CC(=O)O` [EGTA, ethylene glycol-bis(β-aminoethyl ether)-N,N,N′,N′-tetraacetic acid], the “enhancement of luciferase levels in confluent cells versus transfection without EGTA” value ([1]; pCILuc) was “approximately four-fold”, the “transfection after pre-incubation of the cells with EGTA” value ([1]; pre-incubation before vector) was “no better than the results without EGTA” and the “increase in transfection efficiency of confluent cells” value (1HAEo-cells) was 4 fold. The “effect on tight junctions (occludin immunofluorescence)” value (confluent 1HAEo-cells) was “disrupted the tight junctions”, the “effect on transfection efficiency of sub-confluent cells” value [2] was “no effect” and the “increase of transfection efficiency of airway epithelial cells in vitro” value ([2]; green fluorescent protein and luciferase reporter genes) was “about four-fold”. The “transfection efficiency, confluent cells co-treated with EGTA” value ([2]; green fluorescent reporter gene) was 20 to 30%, the “enhancement of transfection of mouse lung (luciferase, RLU per mg lung protein)” value (mouse lung; 100 mM EGTA, 8 μg plasmid DNA in 50 μl, intra-tracheal) was “about four-fold” and the lethality (mouse lung; 400 mM EGTA in vivo) was “lethal in many cases”.

From US20040014217A1, “Methods of transfection” (priority 2000, published 2004)
